Assay results: article PMC6399515 (Insect Biochemistry and Molecular Biology, 2016)

Experiments:
Experiment in all cases: biochemical
[1] = target: T1, CYP6P2 (Anopheles gambiae, UniProt Q8T629, V81I)
T1 sequence (Q8T629 1-507 V81I): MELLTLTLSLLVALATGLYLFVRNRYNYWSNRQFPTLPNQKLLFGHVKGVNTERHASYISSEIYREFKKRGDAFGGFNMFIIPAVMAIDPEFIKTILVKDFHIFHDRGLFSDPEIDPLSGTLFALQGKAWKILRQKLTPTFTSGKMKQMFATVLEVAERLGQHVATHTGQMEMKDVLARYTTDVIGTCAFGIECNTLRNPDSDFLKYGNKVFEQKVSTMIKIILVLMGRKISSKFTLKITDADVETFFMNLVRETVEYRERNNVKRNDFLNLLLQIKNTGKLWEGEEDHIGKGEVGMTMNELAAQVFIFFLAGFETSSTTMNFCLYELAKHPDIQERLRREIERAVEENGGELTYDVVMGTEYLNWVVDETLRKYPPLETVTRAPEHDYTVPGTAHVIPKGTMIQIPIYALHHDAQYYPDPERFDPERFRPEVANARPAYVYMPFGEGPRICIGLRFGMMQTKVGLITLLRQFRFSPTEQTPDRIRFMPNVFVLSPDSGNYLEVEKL
T1 sequence (Q7QFI3 1-587 partner): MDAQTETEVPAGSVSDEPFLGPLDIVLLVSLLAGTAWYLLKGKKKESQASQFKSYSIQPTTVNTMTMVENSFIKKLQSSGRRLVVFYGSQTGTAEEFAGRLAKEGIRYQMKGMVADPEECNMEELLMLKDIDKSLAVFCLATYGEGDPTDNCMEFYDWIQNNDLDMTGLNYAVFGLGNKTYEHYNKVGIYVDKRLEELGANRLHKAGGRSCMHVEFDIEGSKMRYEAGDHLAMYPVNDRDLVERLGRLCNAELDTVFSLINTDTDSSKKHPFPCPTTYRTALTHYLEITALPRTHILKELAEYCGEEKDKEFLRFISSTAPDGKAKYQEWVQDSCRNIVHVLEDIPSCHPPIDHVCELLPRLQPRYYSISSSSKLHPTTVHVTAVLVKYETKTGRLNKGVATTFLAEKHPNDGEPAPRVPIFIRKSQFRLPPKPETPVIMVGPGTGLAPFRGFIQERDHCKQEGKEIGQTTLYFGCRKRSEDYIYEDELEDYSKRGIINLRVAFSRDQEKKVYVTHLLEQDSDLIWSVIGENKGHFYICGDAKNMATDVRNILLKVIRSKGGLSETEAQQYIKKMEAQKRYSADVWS
T1 sequence (Q86QH4 1-128 partner): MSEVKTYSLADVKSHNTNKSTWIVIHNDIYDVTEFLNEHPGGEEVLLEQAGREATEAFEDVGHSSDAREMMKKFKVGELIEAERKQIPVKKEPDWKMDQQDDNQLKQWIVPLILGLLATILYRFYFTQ

[2] = target: T2, CYP6P3 (Anopheles gambiae, UniProt Q8T632)
T2 sequence (Q8T632 1-509): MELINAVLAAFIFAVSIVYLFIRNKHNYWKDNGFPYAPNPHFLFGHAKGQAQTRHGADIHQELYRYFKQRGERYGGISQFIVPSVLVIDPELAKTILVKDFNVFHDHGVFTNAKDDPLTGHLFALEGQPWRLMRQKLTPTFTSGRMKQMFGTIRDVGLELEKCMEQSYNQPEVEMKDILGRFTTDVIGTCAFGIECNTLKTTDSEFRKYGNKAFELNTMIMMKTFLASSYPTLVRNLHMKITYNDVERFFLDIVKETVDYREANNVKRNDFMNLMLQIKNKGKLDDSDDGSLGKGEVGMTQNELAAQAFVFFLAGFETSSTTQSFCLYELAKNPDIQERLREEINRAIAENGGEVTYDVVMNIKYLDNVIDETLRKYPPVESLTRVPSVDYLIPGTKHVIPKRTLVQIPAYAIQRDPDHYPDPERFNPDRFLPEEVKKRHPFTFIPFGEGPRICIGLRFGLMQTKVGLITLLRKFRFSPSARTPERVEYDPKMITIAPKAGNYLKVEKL
T2 sequence (Q86QH5 1-679 partner): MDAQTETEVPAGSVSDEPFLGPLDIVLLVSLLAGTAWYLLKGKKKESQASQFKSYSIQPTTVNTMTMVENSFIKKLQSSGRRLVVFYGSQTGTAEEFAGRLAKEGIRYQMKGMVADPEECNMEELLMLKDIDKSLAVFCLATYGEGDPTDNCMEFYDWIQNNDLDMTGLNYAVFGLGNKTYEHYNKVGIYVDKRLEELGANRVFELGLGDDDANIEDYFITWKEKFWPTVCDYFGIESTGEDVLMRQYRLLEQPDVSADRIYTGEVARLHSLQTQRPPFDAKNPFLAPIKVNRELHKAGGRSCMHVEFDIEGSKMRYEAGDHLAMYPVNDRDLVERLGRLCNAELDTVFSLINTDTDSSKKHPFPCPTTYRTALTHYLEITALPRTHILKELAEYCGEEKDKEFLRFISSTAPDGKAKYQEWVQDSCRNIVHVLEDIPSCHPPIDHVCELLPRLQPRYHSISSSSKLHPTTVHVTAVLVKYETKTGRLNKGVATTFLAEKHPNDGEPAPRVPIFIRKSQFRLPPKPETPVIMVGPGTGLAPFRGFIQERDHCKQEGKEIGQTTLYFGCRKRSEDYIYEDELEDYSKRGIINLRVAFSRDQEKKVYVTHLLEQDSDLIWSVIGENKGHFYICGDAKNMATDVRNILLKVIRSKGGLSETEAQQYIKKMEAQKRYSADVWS
T2 sequence (Q86QH4 1-128 partner): T1 sequence (Q86QH4 1-128 partner)

[3] = target: T3, CYP9J5 (Anopheles gambiae, UniProt Q5TN57)
T3 sequence (Q5TN57 1-545): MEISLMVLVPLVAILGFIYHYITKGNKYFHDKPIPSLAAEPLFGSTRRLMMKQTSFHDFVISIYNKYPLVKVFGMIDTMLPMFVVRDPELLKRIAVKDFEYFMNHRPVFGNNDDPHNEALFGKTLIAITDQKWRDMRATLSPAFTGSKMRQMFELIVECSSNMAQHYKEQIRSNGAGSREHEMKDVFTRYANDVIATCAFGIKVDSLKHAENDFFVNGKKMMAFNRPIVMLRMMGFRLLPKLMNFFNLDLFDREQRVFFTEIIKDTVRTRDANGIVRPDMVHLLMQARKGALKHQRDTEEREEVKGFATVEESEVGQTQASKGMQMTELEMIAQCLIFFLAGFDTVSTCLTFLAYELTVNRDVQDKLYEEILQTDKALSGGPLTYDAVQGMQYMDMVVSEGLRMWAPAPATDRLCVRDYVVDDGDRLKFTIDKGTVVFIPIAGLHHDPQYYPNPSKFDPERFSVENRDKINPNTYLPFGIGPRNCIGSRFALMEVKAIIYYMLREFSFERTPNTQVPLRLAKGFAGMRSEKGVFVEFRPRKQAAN
T3 sequence (Q86QH5 1-679 partner): T2 sequence (Q86QH5 1-679 partner)
T3 sequence (Q86QH4 1-128 partner): T1 sequence (Q86QH4 1-128 partner)

SMILES | IC50 ([1]; IC50 of DEF metabolism) [µM] | IC50 [2] [µM] | IC50 [3] [µM] | IC50 ([1]; category of inhibition of DEF metabolism) [µM]
CC1(C)C(C=C(Cl)Cl)C1C(=O)OCc1cccc(Oc2ccccc2)c1 (mixture of isomers) [Permethrin, 3-phenoxybenzyl (1R,S)-cis,trans-3-(2,2-dichlorovinyl)-2,2-dimethylcyclopropanecarboxylate] | 8.61 | 6.77 | 6.47 | 
CC(COc1ccc(Oc2ccccc2)cc1)Oc1ccccn1 (stereo not shown) [PPF, pyriproxyfen] | 9.95 | 15.8 | 19 | 1 to 10
